Where two headings read alike, the source gives them in different places.
Key:
Assay in all cases: Dundee kinase screen re-test (standard format and 4 hour pre-incubation)
Assay type in all cases: biochemical
[1] = target: BTK (Homo sapiens, UniProt Q06187)
In short: (§1)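 Selectivity panel of 131 protein kinases, inhibitor tested at a single concentration of 1 µM; values are % kinase activity remaining, mean of duplicates. Re-test of selected kinases used 0.5 µM in the standard format and again after a 4 hour pre-incubation with the inhibitor.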

[2] = target: T1, TTK (Homo sapiens, UniProt P33981)
T1 sequence (P33981 1-857): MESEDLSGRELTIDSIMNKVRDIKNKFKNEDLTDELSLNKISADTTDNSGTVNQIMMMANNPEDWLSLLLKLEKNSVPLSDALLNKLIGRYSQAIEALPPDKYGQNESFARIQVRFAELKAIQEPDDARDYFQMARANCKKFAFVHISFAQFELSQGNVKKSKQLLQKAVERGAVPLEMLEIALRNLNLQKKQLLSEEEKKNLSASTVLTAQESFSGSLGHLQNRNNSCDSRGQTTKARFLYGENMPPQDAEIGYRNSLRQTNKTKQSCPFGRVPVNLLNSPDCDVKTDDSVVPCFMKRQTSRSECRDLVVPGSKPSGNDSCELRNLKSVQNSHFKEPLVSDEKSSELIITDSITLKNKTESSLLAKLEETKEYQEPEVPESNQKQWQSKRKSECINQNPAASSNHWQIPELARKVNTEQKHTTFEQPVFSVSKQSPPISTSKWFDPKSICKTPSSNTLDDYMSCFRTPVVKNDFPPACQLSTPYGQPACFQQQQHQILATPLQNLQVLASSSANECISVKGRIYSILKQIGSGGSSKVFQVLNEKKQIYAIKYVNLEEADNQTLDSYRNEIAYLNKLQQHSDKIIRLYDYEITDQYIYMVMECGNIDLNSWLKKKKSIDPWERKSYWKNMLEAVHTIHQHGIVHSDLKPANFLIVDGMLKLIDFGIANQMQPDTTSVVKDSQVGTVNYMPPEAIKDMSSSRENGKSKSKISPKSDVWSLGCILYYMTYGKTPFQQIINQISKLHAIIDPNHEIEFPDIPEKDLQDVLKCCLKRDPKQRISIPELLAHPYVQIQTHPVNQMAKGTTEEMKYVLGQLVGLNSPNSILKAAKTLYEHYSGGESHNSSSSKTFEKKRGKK
In short: as §1

[3] = target: T2, EPH-B3 (Homo sapiens, UniProt P54753); details: EPH-B3, 0.5µM
T2 sequence (P54753 34-998): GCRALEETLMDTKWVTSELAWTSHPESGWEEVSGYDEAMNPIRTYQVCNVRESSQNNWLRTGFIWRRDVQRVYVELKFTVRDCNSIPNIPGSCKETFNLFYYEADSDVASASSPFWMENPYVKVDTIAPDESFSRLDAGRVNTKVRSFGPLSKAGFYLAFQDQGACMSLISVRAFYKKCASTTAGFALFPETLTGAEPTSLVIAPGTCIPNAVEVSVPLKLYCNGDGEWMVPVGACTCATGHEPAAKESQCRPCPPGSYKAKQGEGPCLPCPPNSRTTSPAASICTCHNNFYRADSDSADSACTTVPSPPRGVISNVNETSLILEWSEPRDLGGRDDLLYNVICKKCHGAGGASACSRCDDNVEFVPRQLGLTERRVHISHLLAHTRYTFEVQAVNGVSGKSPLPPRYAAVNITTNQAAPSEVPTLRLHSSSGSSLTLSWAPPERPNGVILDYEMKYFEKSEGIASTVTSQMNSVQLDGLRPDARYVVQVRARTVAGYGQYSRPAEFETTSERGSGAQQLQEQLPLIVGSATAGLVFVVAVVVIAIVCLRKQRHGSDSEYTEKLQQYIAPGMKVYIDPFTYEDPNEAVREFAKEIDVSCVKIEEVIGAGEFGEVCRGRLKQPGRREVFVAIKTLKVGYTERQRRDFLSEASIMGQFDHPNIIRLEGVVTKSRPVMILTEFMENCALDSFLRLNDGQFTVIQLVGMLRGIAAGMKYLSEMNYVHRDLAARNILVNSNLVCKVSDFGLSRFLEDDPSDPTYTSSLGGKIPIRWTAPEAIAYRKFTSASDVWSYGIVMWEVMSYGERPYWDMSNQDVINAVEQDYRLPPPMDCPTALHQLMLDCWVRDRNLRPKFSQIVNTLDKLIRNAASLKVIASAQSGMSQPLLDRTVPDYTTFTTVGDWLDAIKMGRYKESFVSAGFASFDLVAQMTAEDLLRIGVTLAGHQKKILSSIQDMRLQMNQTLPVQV
In short: as §1

[4] = 4hr RT preincubation, read-out: %Remaining activity at 0.5µM NU6300 - 4hr RT preincubation
[5] = usual format, read-out: %Remaining activity at 0.5µM NU6300 - Usual assay format

Chain of BTK (Q06187 whole entry): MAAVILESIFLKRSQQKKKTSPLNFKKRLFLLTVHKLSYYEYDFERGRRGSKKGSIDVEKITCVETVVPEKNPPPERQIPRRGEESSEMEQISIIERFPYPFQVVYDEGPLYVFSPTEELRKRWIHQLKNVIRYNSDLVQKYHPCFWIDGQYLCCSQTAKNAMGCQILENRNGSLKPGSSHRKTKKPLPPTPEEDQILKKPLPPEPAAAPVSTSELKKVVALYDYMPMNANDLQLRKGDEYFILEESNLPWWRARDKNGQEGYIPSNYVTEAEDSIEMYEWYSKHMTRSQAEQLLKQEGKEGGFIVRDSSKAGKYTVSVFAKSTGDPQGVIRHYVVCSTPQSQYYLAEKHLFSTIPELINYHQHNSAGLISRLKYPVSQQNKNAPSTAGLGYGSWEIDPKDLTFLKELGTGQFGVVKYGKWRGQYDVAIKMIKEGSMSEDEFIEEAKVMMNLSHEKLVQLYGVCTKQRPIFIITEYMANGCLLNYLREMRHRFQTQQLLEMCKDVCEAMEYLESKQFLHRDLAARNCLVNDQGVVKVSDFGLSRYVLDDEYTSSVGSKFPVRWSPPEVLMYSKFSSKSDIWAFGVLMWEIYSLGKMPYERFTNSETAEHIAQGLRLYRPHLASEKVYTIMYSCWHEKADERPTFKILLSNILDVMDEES

C=CS(=O)(=O)c1ccc(Nc2nc(OCC3CCCCC3)c3nc[nH]c3n2)cc1 [NU6300, 6-(cyclohexylmethoxy)-N-(4-(vinylsulfonyl)phenyl)-9H-purin-2-amine]
remaining activity at 0.5 µM [1, 4]: 28%
remaining activity at 0.5 µM [1, 5]: 18%
remaining activity at 0.5 µM [2, 4]: 47%
remaining activity at 0.5 µM [2, 5]: 41%
remaining activity at 0.5 µM [3, 4]: 17%
remaining activity at 0.5 µM [3, 5]: 12%

From publication PMC4579270, “Identification and Characterization of an Irreversible Inhibitor of CDK2” (Chemistry & Biology, 2015)
